Results: paper PMC12718228 (Applied Biochemistry and Biotechnology, 2025)

Legend:
[1] = target: T1, SALDAP (6xHis-SALDAP), salicylaldehyde dehydrogenase (soil metagenome, UniProt Z9QUQ6R3A5); experiment: NADH formation at […] nm, substrate inhibition fit; type: biochemical; conditions: 50 µM NAD+, 100 mM Tricine pH 8.0, 25 °C, 1.7% DMSO
T1 construct: full-length ORF, N-terminal 6xHis tag kept (pLATE51), E. coli BL21(DE3); homodimer about 110-115 kDa

[2] = target: T1, SALDAP (6xHis-SALDAP), salicylaldehyde dehydrogenase; experiment: differential scanning fluorimetry, SYPRO Orange; type: binding; conditions: 50 mM HEPES pH 7.4
From the text: differential scanning fluorimetry, SYPRO Orange on SALDAP (6xHis-SALDAP), salicylaldehyde dehydrogenase

[3] = target: T1, SALDAP (6xHis-SALDAP), salicylaldehyde dehydrogenase; experiment: X-ray crystallography, electron density in active site; type: binding; conditions: two conformations; structure first reported in the group's earlier paper

| SMILES | Tm ^oC ([2]; 2 mM ligand with 1.5 mM NAD+) [°C] | further results |
| --- | --- | --- |
| O=Cc1ccccc1 [Benzaldehyde] | – | Ki [1]: 5.02 ± 1.84 µM |
| O=Cc1ccc(O)cc1 [4-hydroxybenzaldehyde] | 70.0 ± 0.3 | – |
| O=Cc1ccc(O)c(O)c1 [3,4-dihydroxybenzaldehyde] | 71.0 ± 0.0 | – |
| NC(=O)c1ccc[n+]([C@@H]2O[C@H](COP(=O)(O)OP(=O)(O)OC[C@H]3O[C@@H](n4cnc5c(N)ncnc54)[C@H](O)[C@@H]3O)[C@@H](O)[C@H]2O)c1 [NAD+] | – | Tm ^oC ([2]; 1.5 mM NAD+ alone): 68.7 ± 0.3 °C |
| COc1cc(C=O)ccc1O [Vanillin] | 69.6 ± 0.4 | – |
| O=Cc1ccc2ccccc2c1 [2-naphthaldehyde] | – | X-ray crystallography, electron density in active site [3]: electron density as seen in the active site of SALDAP after refinement using 2-naphthaldehyde |
